Results as given in US9029406B2 (Seattle Genetics, Inc, priority 2011, dated 2015).
Where a SMILES comes first, the peptide text is derived from it. [ ]: non-standard residue; d: D form. The star is where a group is joined. Dolaproine = CO[C@@H]([C@@H]1CCCN1)[C@@H](C)C(=O)O; Dil = CC[C@H](C)[C@H](NC)[C@@H](CC(=O)O)OC; X1 = C[C@@H](N*)[C@@H](O)c1ccccc1; NMeV = CN[C@H](C(=O)O)C(C)C

What was measured:
[1] = Cell permeability, flux assay using Caco-2 cells; assay type: in vitro ADME; conditions: human; Caco-2 flux assay, basal to apical, 2 h incubation
Method: (§1) B-4. Determination of Cell Permeability:
(§2) The cell permeability of a substance can be analyzed by in vitro testing in a flux assay using Caco-2 cells [M. D. Troutman and D. R. Thakker, Pharm. Res. 20 (8), 1210-1224 (2003)]. To do so, the cells were cultured for 15-16 days on 24-hole filter plates. To determine the permeation, the respective test substance was applied to the cells either apically (A) or basally (B) in a HEPES buffer and incubated for 2 h. After 0 h and after 2 h, samples were taken from the cis- and trans-compartments. The samples were separated by HPLC (Agilent 1200, Böblingen, Germany) using reverse phase columns. The HPLC system was coupled via a turbo ion spray interface to an API 4000 triple quadrupole mass spectrometer (Applied Biosystems Applera, Darmstadt, Germany). The permeability was evaluated on the basis of a Papp value, which was calculated using the equation published by Schwab et al. [D. Schwab et al., J. Med. Chem. 46, 1717-1725 (2003)]. A substance was classified as being actively transported if the ratio of Papp (B−A) to Papp (A−B) was >2 or <0.5.
(§3) The permeability of B to A [Papp (B−A)] is of crucial importance for toxophores that are released intracellularly. The lower this permeability, the longer is the dwell time of the substance in the cell after intracellular release and thus also the time available for an interaction with the biochemical target (here: tubulin).

[2] = tested on: human colon carcinoma cell line HT29 wt; assay: Antiproliferative effect on the HT29 wt cell line (MTT assay); assay type: cell-based; conditions: incubation 48 h to 96 h
Method: B-1. Determination of the Antiproliferative Effect on the HT29 Wt Cell Line:
A defined cell count of the human colon carcinoma cell line HT29 wt (wild type) was sown in a 96-well microtiter plate in whole medium (10% FCS-RPMI) (2500 cells/well) and incubated overnight at 37° C./5% CO2. After 18 hours, the inoculation medium was replaced by fresh medium with 10% FCS. The treatment started with addition of the respective test substance. Of the substances to be investigated, dose-effect curves were determined in a concentration range of 10^−5 M to 10^−14 M (1:10 dilution series). Incubation times of 48 h to 96 h were selected. Proliferation was detected with the help of the MTT assay (ATCC, Manassas, Va., USA, catalog no. 30-1010K). After the end of the selected incubation time, the MTT reagent was incubated with the cells for 4 h before lysis of the cells was performed overnight by adding the detergent. The dye that was formed was detected at 570 nm. The proliferation with otherwise identically treated cells but not with the test substance was defined as the 100% value. The data obtained from this test represents triple determinations, and at least two independent experiments were performed.

Caco-2 cells = assay: Cell permeability, flux assay using Caco-2 cells; assay type: in vitro ADME; conditions: Caco-2 flux assay, basal to apical, 2 h incubation
Method: as §1, §2, §3

[3] = Homo sapiens, HT-29, HT29 wt cells

| Compound | Papp B→A at 2 h [1] | IC50 [2, 3] | Papp (B-A) (Caco-2 cells) | IC50 ([2]; HT29 wt cells) |
| --- | --- | --- | --- | --- |
| CC[C@H](C)[C@@H]([C@@H](CC(=O)N1CCC[C@H]1[C@H](OC)[C@@H](C)C(=O)NCCc1c[nH]c2ccccc12)OC)N(C)C(=O)[C@@H](NC(=O)[C@H](C(C)C)N(C)CCCC(=O)O)C(C)C [Example 7, N-(3-Carboxypropyl)-N-methyl-L-valyl-N-[(3R,4S,5S)-1-{(2S)-2-[(1R,2R)-3-{[2-(1H-indol-3-yl)ethyl]amino}-1-methoxy-2-methyl-3-oxopropyl]pyrrolidin-1-yl}-3-methoxy-5-methyl-1-oxoheptan-4-yl]-N-methyl-L-valinamide] | 1.1 ×10⁻⁶ cm/s |  |  |  |
| CC[C@H](C)[C@@H]([C@@H](CC(=O)N1CCC[C@H]1[C@H](OC)[C@@H](C)C(=O)N[C@@H](Cc1ccccc1)c1nnc(-c2ccccc2)o1)OC)N(C)C(=O)[C@@H](NC(=O)[C@H](C(C)C)N(C)CCCC(=O)O)C(C)C [Example 5, N-(3-Carboxypropyl)-N-methyl-L-valyl-N-[(3R,4S,5S)-3-methoxy-1-{(2S)-2-[(1R,2R)-1-methoxy-2-methyl-3-oxo-3-{[(1S)-2-phenyl-1-(5-phenyl-1,3,4-oxadiazol-2-yl)ethyl]amino}propyl]pyrrolidin-1-yl}-5-methyl-1-oxoheptan-4-yl]-N-methyl-L-valinamide] | 2.9 ×10⁻⁶ cm/s | 0.1 nM |  |  |
| CC[C@H](C)[C@@H]([C@@H](CC(=O)N1CCC[C@H]1[C@H](OC)[C@@H](C)C(=O)NCCc1ccccc1)OC)N(C)C(=O)[C@@H](NC(=O)[C@H](C(C)C)N(C)CCCC(=O)O)C(C)C [Example 8, N-(3-Carboxypropyl)-N-methyl-L-valyl-N-[(3R,4S,5S)-3-methoxy-1-{(2S)-2-[(1R,2R)-1-methoxy-2-methyl-3-oxo-3-[(2-phenylethyl)amino]propyl}pyrrolidin-1-yl}-5-methyl-1-oxoheptan-4-yl]-N-methyl-L-valinamide] | 1 ×10⁻⁶ cm/s | 0.5 nM |  |  |
| CC[C@H](C)[C@@H]([C@@H](CC(=O)N1CCC[C@H]1[C@H](OC)[C@@H](C)C(=O)N[C@H](C)[C@@H](O)c1ccccc1)OC)N(C)C(=O)[C@@H](NC(=O)[C@H](C(C)C)N(C)CCCC(=O)O)C(C)C [Example 9, N-(3-Carboxypropyl)-N-methyl-L-valyl-N-[(3R,4S,5S)-1-{(2S)-2-[(1R,2R)-3-{[(1S,2R)-1-hydroxy-1-phenylpropan-2-yl]amino}-1-methoxy-2-methyl-3-oxopropyl]pyrrolidin-1-yl}-3-methoxy-5-methyl-1-oxoheptan-4-yl]-N-methyl-L-valinamide] | 0.45 ×10⁻⁶ cm/s | 6 nM |  |  |
| CC[C@H](C)[C@@H]([C@@H](CC(=O)N1CCC[C@H]1[C@H](OC)[C@@H](C)C(=O)N[C@H](Cc1ccccc1)c1nnc(-c2ccccc2)o1)OC)N(C)C(=O)[C@@H](NC(=O)[C@H](C(C)C)N(C)CCCC(=O)O)C(C)C [Example 6, N-(3-Carboxypropyl)-N-methyl-L-valyl-N-[(3R,4S,5S)-3-methoxy-1-{(2S)-2-[(1R,2R)-1-methoxy-2-methyl-3-oxo-3-{[(1R)-2-phenyl-1-(5-phenyl-1,3,4-oxadiazol-2-yl)ethyl]amino}propyl]pyrrolidin-1-yl}-5-methyl-1-oxoheptan-4-yl]-N-methyl-L-valinamide] | 4.5 ×10⁻⁶ cm/s | 0.1 nM |  |  |
| CC[C@H](C)[C@@H]([C@@H](CC(=O)N1CCC[C@H]1[C@H](OC)[C@@H](C)C(=O)N[C@H](/C=C/c1ccccc1)Cc1ccccc1)OC)N(C)C(=O)[C@@H](NC(=O)[C@H](C(C)C)N(C)CCCC(=O)O)C(C)C [Example 3, N-(3-Carboxypropyl)-N-methyl-L-valyl-N-[(3R,4S,5S)-1-{(2S)-2-[(1R,2R)-3-{[(2S,3E)-1,4-diphenylbut-3-en-2-yl]amino}-1-methoxy-2-methyl-3-oxopropyl]pyrrolidin-1-yl}-3-methoxy-5-methyl-1-oxoheptan-4-yl]-N-methyl-L-valinamide] | 17.9 ×10⁻⁶ cm/s | 0.3 nM |  |  |
| CC[C@H](C)[C@@H]([C@@H](CC(=O)N1CCC[C@H]1[C@H](OC)[C@@H](C)C(=O)N[C@@H](Cc1ccccc1)CS(=O)(=O)Cc1ccccc1)OC)N(C)C(=O)[C@@H](NC(=O)[C@H](C(C)C)N(C)CCCC(=O)O)C(C)C [Example 4] | 1.9 ×10⁻⁶ cm/s | 1.1 nM |  |  |
| CC[C@H](C)[C@@H]([C@@H](CC(=O)N1CCC[C@H]1[C@H](OC)[C@@H](C)C(=O)N[C@H](C)[C@@H](O)c1ccccc1)OC)N(C)C(=O)[C@@H](NC(=O)[C@@H](NC)C(C)C)C(C)C [MMAE, monomethylauristatin E, reference compound] (H-[NMeV]V[Dil][Dolaproine]-X1) |  |  | 8.9 ×10⁻⁶ cm/s |  |
| CC[C@H](C)[C@@H]([C@@H](CC(=O)N1CCC[C@H]1[C@H](OC)[C@@H](C)C(=O)N[C@H](/C=C/c1ccc(C(=O)O)cc1)Cc1ccccc1)OC)N(C)C(=O)[C@@H](NC(=O)[C@H](C(C)C)N(C)CCCC(=O)O)C(C)C [Example 11] | 0.2 ×10⁻⁶ cm/s | 4.5 nM |  |  |
| CC[C@H](C)[C@@H]([C@@H](CC(=O)N1CCC[C@H]1[C@H](OC)[C@@H](C)C(=O)N[C@H](/C=C\c1ccccc1)Cc1ccccc1)OC)N(C)C(=O)[C@@H](NC(=O)[C@H](C(C)C)N(C)CCCC(=O)O)C(C)C [Example 2, N-(3-Carboxypropyl)-N-methyl-L-valyl-N-[(3R,4S,5S)-1-{(2S)-2-[(1R,2R)-3-{[(2S,3Z)-1,4-diphenylbut-3-en-2-yl]amino}-1-methoxy-2-methyl-3-oxopropyl]pyrrolidin-1-yl}-3-methoxy-5-methyl-1-oxoheptan-4-yl]-N-methyl-L-valinamide] | 15.7 ×10⁻⁶ cm/s | 3.3 nM |  |  |
| CC[C@H](C)[C@@H]([C@@H](CC(=O)N1CCC[C@H]1[C@H](OC)[C@@H](C)C(=O)N[C@H](/C=C\Cc1ccccc1)Cc1ccccc1)OC)N(C)C(=O)[C@@H](NC(=O)[C@H](C(C)C)N(C)CCCC(=O)O)C(C)C [Example 1, N-(3-Carboxypropyl)-N-methyl-L-valyl-N-[(3R,4S,5S)-1-{(2S)-2-[(1R,2R)-3-{[(2S,3Z)-1,5-diphenylpent-3-en-2-yl]amino}-1-methoxy-2-methyl-3-oxopropyl]pyrrolidin-1-yl}-3-methoxy-5-methyl-1-oxoheptan-4-yl]-N-methyl-L-valinamide] |  | 15 nM |  |  |
| CC[C@H](C)[C@@H]([C@@H](CC(=O)N1CCC[C@H]1[C@H](OC)[C@@H](C)C(=O)N[C@@H](Cc1ccccc1)C(=O)O)OC)N(C)C(=O)[C@@H](NC(=O)[C@@H](NC)C(C)C)C(C)C [MMAF, monomethylauristatin F, reference compound] (H-[NMeV]V[Dil][Dolaproine]F-OH) |  |  | 7.3 ×10⁻⁶ cm/s | 10 nM |
